18 compounds from patent US20180273528A1 (LES LABORATOIRES SERVIER, priority 2015, published 2018) can be followed below.

One assay concerns the target T1, CDK9 (Homo sapiens, UniProt P50750).
T1 construct: full-length human kinases from Carna Biosciences; purchased Carna Biosciences 04-110
As to the kind of experiment: Kinase TR-FRET assay, CDK9. Type of assay: biochemical. Conditions: full-length human kinase, 10 μM ATP. Summed up: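 Full-length human CDK9 (0.9 ng/μl) incubated 100 min at room temperature with 10 μM ATP, 100 nM ULight-MBP peptide and compound (0.1 nM–30 μM) in 50 mM HEPES pH 7.4, 1 mM EGTA, 10 mM MgCl2, 2 mM DTT, 0.01% Tween20. Stopped with 10 mM EDTA, then 1 nM Eu-anti-phospho-Thr232 MBP antibody added for 1 h. TR-FRET read at 665/620 nm with 340 nm excitation.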

The target in assay [1] is T2, His-TEV-DYRK1A Kinase domain (aa127-485) (Homo sapiens, UniProt Q13627).
T2 construct: His-TEV-DYRK1A Kinase domain (aa127-485); His tag (N); TEV protease cleavage site (N)
In words: Kinase ADP assay (ADP Hunter), DYRK1A kinase domain. Type of assay: biochemical. Conditions: 20 μM ATP. In a few lines: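 Compounds incubated 10 min at 30 °C with 20 nM enzyme, 40 μM peptide substrate and 20 μM ATP in pH 7.4 Hepes buffer with 10 mM MgCl2. ADP formed detected by ADP Hunter Plus reagents after 20 min at 30 °C, fluorescence read at 590 nm.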

Assay [2] has as its target T3, DYRK1A (Homo sapiens, UniProt Q13627). As to the kind of experiment: Cellular DYRK1 autophosphorylation assay in U2-OS cells. Conditions: U2-OS cells transfected with HA-tagged human DYRK1A, 5 hours exposure; read-out: IC50 (μM) P-Ser520-Dyrk1A -Cell assay. Also on record: full-length, wild-type human DYRK1A (NM_001396) with an HA tag; expressed in transfected cells; host or cells: human U2-OS osteosarcoma cells, transient transfection of a pcDNA3.1 plasmid. Type of assay: cell-based. Summed up: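 U2-OS cells treated with a compound concentration range for 5 h. Phospho-Ser520-DYRK1A measured by western blot densitometry or Mesoscale ELISA. IC50 from dose-response curves; for blots, ratio of phospho-Ser520 to total DYRK1A signal.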

A further assay addresses T4, CLK1 (Homo sapiens, UniProt P49759).
T4 construct: full-length human kinases from Carna Biosciences; purchased Carna Biosciences 04-126
In words: Kinase TR-FRET assay, CLK1. Type of assay: biochemical. Conditions: full-length human kinase, 10 μM ATP. Summed up: (§1)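 Compounds tested at 0.1 nM to 30 μM in reaction buffer; reaction stopped with 10 mM EDTA. Phosphorylated MBP detected with 1 nM Europium-labelled anti-phospho-Thr232 antibody by TR-FRET.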

For another assay, the target named is T5, DYRK1B (Homo sapiens, UniProt Q9Y463).
T5 construct: full-length human kinases from Carna Biosciences; purchased Carna Biosciences 04-131
As to the kind of experiment: Kinase TR-FRET assay, DYRK1B. Type of assay: biochemical. The conditions noted are these: full-length human kinase, 10 μM ATP. In a few lines:
as §1

Assay [3] has as its target T3, DYRK1A. In words: Kinase TR-FRET assay, DYRK1A. It is filed as biochemical. Set-up: full-length, wild-type human DYRK1A (NM_001396) with an HA tag; expressed in transfected cells; host or cells: human U2-OS osteosarcoma cells, transient transfection of a pcDNA3.1 plasmid. Conditions: full-length human kinase, 10 μM ATP. In a few lines:
as §1

Molecules are shown by their SMILES. Where only a bound is given, the exact number is not on record here.

T4 sequence (P49759 1-526 isoform P49759-3): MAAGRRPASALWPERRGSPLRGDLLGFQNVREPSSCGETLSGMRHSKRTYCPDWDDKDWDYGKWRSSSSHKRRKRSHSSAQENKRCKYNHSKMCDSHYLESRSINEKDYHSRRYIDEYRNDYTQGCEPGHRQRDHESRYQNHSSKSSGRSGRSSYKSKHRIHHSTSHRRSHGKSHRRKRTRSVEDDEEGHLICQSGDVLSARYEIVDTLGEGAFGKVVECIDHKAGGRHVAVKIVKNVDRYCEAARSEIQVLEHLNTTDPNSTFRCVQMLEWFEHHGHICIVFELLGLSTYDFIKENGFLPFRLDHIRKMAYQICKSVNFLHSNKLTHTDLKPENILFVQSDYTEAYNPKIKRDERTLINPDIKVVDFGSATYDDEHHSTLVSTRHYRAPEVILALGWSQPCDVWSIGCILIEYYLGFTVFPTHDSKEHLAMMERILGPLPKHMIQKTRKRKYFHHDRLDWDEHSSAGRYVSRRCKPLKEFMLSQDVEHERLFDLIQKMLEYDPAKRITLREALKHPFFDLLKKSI
T5 sequence (Q9Y463 whole entry): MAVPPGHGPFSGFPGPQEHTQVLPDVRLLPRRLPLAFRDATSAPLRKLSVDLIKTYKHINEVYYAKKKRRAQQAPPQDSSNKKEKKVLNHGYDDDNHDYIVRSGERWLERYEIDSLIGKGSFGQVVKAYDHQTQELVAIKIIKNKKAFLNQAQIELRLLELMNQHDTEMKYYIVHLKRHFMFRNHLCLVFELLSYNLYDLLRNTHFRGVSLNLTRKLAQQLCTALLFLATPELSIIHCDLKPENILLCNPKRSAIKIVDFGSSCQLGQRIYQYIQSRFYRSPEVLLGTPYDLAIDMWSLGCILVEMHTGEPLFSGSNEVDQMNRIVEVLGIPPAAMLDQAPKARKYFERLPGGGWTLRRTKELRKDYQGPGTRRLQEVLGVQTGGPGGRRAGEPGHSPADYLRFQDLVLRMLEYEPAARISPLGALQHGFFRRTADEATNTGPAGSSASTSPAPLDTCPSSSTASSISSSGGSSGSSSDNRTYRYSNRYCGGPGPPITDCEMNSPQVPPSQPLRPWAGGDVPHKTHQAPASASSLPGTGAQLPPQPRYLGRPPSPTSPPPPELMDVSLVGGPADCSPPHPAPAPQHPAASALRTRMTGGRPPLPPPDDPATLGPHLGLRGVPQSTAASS
T1 sequence (P50750 whole entry): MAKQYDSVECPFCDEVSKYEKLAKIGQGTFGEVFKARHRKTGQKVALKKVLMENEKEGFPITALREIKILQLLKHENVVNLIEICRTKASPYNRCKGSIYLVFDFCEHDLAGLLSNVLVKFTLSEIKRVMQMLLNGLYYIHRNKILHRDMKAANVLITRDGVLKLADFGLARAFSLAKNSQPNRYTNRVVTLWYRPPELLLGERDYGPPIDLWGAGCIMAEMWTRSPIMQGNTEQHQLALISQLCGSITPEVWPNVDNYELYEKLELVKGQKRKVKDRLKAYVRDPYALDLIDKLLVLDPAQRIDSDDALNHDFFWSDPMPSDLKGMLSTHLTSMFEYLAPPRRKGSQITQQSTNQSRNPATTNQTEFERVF
T1 sequence (O60563 whole entry partner): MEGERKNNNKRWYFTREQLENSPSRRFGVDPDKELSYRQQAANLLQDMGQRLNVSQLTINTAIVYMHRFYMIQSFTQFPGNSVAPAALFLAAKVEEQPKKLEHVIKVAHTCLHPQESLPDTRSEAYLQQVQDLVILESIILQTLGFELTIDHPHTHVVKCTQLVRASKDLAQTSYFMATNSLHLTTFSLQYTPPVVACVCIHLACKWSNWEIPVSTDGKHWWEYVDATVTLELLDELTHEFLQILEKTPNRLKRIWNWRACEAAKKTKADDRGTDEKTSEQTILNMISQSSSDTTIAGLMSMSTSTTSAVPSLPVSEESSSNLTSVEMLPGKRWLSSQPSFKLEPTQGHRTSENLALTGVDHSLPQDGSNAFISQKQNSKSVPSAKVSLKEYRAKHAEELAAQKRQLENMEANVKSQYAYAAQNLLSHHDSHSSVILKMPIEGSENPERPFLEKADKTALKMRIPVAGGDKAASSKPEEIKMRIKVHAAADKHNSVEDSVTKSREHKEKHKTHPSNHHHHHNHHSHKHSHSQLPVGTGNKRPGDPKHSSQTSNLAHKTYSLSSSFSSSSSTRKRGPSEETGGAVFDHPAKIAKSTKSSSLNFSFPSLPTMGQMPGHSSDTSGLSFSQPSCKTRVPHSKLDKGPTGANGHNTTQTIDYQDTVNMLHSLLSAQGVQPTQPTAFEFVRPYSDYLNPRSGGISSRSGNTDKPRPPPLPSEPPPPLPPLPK

Turning to `Cc1nc2ccc(-c3cc(N)nc(N)c3)nc2n1CCC1CCCC1` [Example 92, 4-[3-(2-cyclopentylethyl)-2-methyl-3H-imidazo[4,5-b]pyridin-5-yl]pyridine-2,6-diamine], the concentration for half-maximal inhibition (IC50) came out at 0.564 µM on CDK9; 0.006 µM in assay [1]; 0.058 µM on DYRK1A [2]; 0.017 µM against CLK1; 0.007 µM on DYRK1B; 0.002 µM against DYRK1A [3].
For `CCCCCCn1c(C)nc2ccc(-c3cc(N)nc(N)c3)nc21` [Example 94, 4-(3-hexyl-2-methyl-3H-imidazo[4,5-b]pyridin-5-yl)pyridine-2,6-diamine], the IC50 was determined as 1.08 µM against CDK9; 0.005 µM in assay [1]; 0.017 µM on DYRK1A [2]; 0.016 µM against CLK1; 0.007 µM against DYRK1B; 0.003 µM against DYRK1A [3].
On to `COC1CCCCC1CCn1c(C)nc2ccc(-c3cc(N)nc(N)c3)nc21` (stereo not drawn) [Example 95, 4-{3-[2-(2-methoxycyclohexyl)ethyl]-2-methyl-3H-imidazo[4,5-b]pyridin-5-yl}pyridine-2,6-diamine], for which the half-maximal inhibitory concentration (IC50) at CDK9 is 1.8 µM; in assay [1], 0.012 µM; on DYRK1A [2], 0.021 µM; against CLK1, 0.029 µM; at DYRK1B it was 0.011 µM; against DYRK1A [3], 0.003 µM.
`Cc1nc2ccc(-c3cc(N)nc(N)c3)nc2n1CCc1ccc(F)cc1` [Example 96, 4-{3-[2-(4-fluorophenyl)ethyl]-2-methyl-3H-imidazo[4,5-b]pyridin-5-yl}pyridine-2,6-diamine]: the IC50 amounted to 3.09 µM against CDK9; 0.011 µM in assay [1]; 0.075 µM at DYRK1A [2]; 0.02 µM on CLK1; 0.01 µM at DYRK1B; 0.004 µM against DYRK1A [3].
Consider `Cc1nc2ccc(-c3cc(N)nc(N)c3)nc2n1CC(F)F` [Example 115, 4-[3-(2,2-difluoroethyl)-2-methyl-3H-imidazo[4,5-b]pyridin-5-yl]pyridine-2,6-diamine], for which the 50% inhibitory concentration (IC50) turned out to be 5.69 µM on CDK9; 0.013 µM in assay [1]; 0.034 µM on DYRK1A [2]; 0.028 µM against CLK1; 0.006 µM against DYRK1B; 0.003 µM against DYRK1A [3].
Regarding `CCCCc1nc2ccc(-c3cc(N)nc(N)c3)nc2n1CCCC` [Example 144, 4-(2,3-dibutyl-3H-imidazo[4,5-b]pyridin-5-yl)pyridine-2,6-diamine], the concentration for half-maximal inhibition (IC50) on CDK9 is more than 3 µM; in assay [1] it was 0.016 µM; on DYRK1A [2] it was 0.128 µM; against CLK1 it was 0.238 µM; against DYRK1B, 0.012 µM; on DYRK1A [3], 0.008 µM.
For `CCCCn1c(C)nc2ccc(-c3cc(N)nc(N)c3)nc21` [Example 148, 4-(3-butyl-2-methyl-3H-imidazo[4,5-b]pyridin-5-yl)pyridine-2,6-diamine], the half-maximal inhibitory concentration (IC50) against CDK9 is 1.24 µM; in assay [1], 0.007 µM; at DYRK1A [2], 0.1 µM; against CLK1, 0.016 µM; at DYRK1B, 0.006 µM; at DYRK1A [3], 0.002 µM.
Regarding `COCCCCn1c(C)nc2ccc(-c3cc(N)nc(N)c3)nc21` [Example 151, 4-[3-(4-methoxybutyl)-2-methyl-3H-imidazo[4,5-b]pyridin-5-yl]pyridine-2,6-diamine], the half-inhibitory concentration (IC50) against CDK9 is 2.87 µM; in assay [1] it was 0.013 µM; at DYRK1A [2] it was 0.17 µM; on CLK1, 0.019 µM; at DYRK1B, 0.008 µM; at DYRK1A [3], 0.004 µM.
As for `Cc1nc2ccc(-c3cc(N)nc(N)c3)nc2n1CCOc1ccccc1` [Example 153, 4-[2-methyl-3-(2-phenoxyethyl)-3H-imidazo[4,5-b]pyridin-5-yl]pyridine-2,6-diamine], the IC50 came to 1.02 µM on CDK9; 0.01 µM in assay [1]; 0.035 µM at DYRK1A [2]; 0.016 µM on CLK1; 0.003 µM at DYRK1B; 0.001 µM at DYRK1A [3].
Turning to `CCCCn1c(CC)nc2ccc(-c3cc(N)nc(N)c3)nc21` [Example 157, 4-(3-butyl-2-ethyl-3H-imidazo[4,5-b]pyridin-5-yl)pyridine-2,6-diamine], the half-maximal inhibitory concentration (IC50) against CDK9 was more than 10 µM; in assay [1] it was 0.021 µM; at DYRK1A [2], 0.153 µM; against CLK1, 0.058 µM; on DYRK1B, 0.003 µM; against DYRK1A [3], 0.011 µM.
Regarding `Cc1nc2ccc(-c3cc(N)nc(N)c3)nc2n1C[C@H](C)Oc1cccc(Br)n1` [Example 180], the concentration for half-maximal inhibition (IC50) at CDK9 stood at 0.467 µM; in assay [1] it was 0.013 µM; on DYRK1A [2] it was 0.044 µM; at CLK1, 0.016 µM; against DYRK1B it was 0.01 µM; at DYRK1A [3] it was 0.005 µM.
Turning to `Cc1nc2ccc(-c3cc(N)nc(N)c3)nc2n1CCOc1cccc(F)c1` [Example 199, 4-{3-[2-(3-fluorophenoxy)ethyl]-2-methyl-3H-imidazo[4,5-b]pyridin-5-yl}pyridine-2,6-diamine], the IC50 at CDK9 was found to be 1.1 µM; in assay [1] it was 0.012 µM; on DYRK1A [2], 0.053 µM; on CLK1, 0.016 µM; against DYRK1B, 0.007 µM; at DYRK1A [3], 0.003 µM.
`Cc1nc2ccc(-c3cc(N)nc(N)c3)nc2n1CCOc1cccc(Cl)c1` [Example 200]: the IC50 came to 1.52 µM at CDK9; 0.018 µM in assay [1]; 0.069 µM on DYRK1A [2]; 0.02 µM at CLK1; 0.01 µM against DYRK1B; 0.005 µM against DYRK1A [3].
For `COc1ccccc1OCCn1c(C)nc2ccc(-c3cc(N)nc(N)c3)nc21` [Example 206, 4-{3-[2-(2-methoxyphenoxy)ethyl]-2-methyl-3H-imidazo[4,5-b]pyridin-5-yl}pyridine-2,6-diamine], the half-maximal inhibitory concentration (IC50) against CDK9 is more than 3 µM; in assay [1], 0.017 µM; on DYRK1A [2] it was 0.094 µM; against CLK1, 0.028 µM; against DYRK1B it was 0.007 µM; on DYRK1A [3], 0.005 µM.
Take `Cc1nc2ccc(-c3cc(N)nc(N)c3)nc2n1CCOc1ccc2[nH]ccc2c1` [Example 210, 4-{3-[2-(1H-indol-5-yloxy)ethyl]-2-methyl-3H-imidazo[4,5-b]pyridin-5-yl}pyridine-2,6-diamine]: the IC50 on CDK9 amounted to 1.01 µM; in assay [1], 0.008 µM; at DYRK1A [2], 0.047 µM; against CLK1, 0.018 µM; against DYRK1B it was 0.006 µM; against DYRK1A [3], 0.003 µM.
For the compound `Cc1nc2ccc(-c3cc(N)nc(N)c3)nc2n1CCOc1c(F)cccc1F` [Example 212, 4-{3-[2-(2,6-difluorophenoxy)ethyl]-2-methyl-3H-imidazo[4,5-b]pyridin-5-yl}pyridine-2,6-diamine], the IC50 against CDK9 was more than 10 µM; in assay [1], 0.007 µM; on DYRK1A [2] it was 0.083 µM; against CLK1, 0.017 µM; against DYRK1B, 0.04 µM; against DYRK1A [3], 0.003 µM.
With `Nc1cc(-c2ccc3nc(Cl)n(C4CCCC4)c3n2)cc(N)n1` [Example 220, 4-(2-chloro-3-cyclopentyl-3H-imidazo[4,5-b]pyridin-5-yl)pyridine-2,6-diamine], the 50% inhibitory concentration (IC50) against CDK9 is 0.724 µM; in assay [1], 0.011 µM; on DYRK1A [2], 0.075 µM; on CLK1, 0.019 µM; at DYRK1B, 0.013 µM; on DYRK1A [3], 0.003 µM.
As for `N#Cc1nc2ccc(-c3cc(N)nc(N)c3)nc2n1C1CCCC1` [Example 221, 3-cyclopentyl-5-(2,6-diaminopyridin-4-yl)-3H-imidazo[4,5-b]pyridine-2-carbonitrile], the IC50 against CDK9 stood at 0.317 µM; in assay [1], 0.008 µM; at DYRK1A [2], 0.043 µM; on CLK1 it was 0.016 µM; against DYRK1B, 0.012 µM; on DYRK1A [3], 0.027 µM.
